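Each compound was tested at five concentrations against cells in 96-well plates for 48 hours. TGI: total growth inhibition.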

Test systems include HCT-116 colon; HCT-15 colon; HL-60(TB) leukemia; IGROV1 ovarian; OVCAR-3 ovarian; SK-MEL-2 melanoma; U251 CNS; UACC-257 melanoma; UACC-62 melanoma.
Assay in all cases: NCI tumour cell line growth inhibition, 48 h

For `Cc1ccc(S(=O)(=O)NC2(C=O)CCC(C(C)(C)C)CC2)cc1` (stereo not given), the TGI in the test with HCT-116 colon is 68.8 µM; in the test on HCT-15 colon, more than 100 µM; in the test on HL-60(TB) leukemia, 42.9 µM; in the test with IGROV1 ovarian, more than 100 µM; in the test with OVCAR-3 ovarian it was more than 100 µM; in the test on SK-MEL-2 melanoma it was more than 100 µM. Besides, the TGI with U251 CNS, with UACC-257 melanoma and in the test with UACC-62 melanoma was more than 100 µM throughout.
As for `COc1ccc(/C=C(\NC(=O)c2ccccc2)c2nc3ccccc3[nH]2)cc1`, the TGI is more than 100 µM with HCT-116 colon; more than 100 µM with HCT-15 colon; more than 100 µM in the test with IGROV1 ovarian; more than 100 µM in the test on OVCAR-3 ovarian; 48.4 µM in the test on SK-MEL-2 melanoma; more than 100 µM in the test on U251 CNS. Further, the TGI is 58.7 µM with UACC-257 melanoma and more than 100 µM with UACC-62 melanoma.
Turning to `CC(=O)/C=C\C(=O)NNS(=O)(=O)c1ccc(C)cc1`, the TGI in the test on HCT-116 colon, with HCT-15 colon, in the test with HL-60(TB) leukemia, with IGROV1 ovarian, in the test with OVCAR-3 ovarian and with SK-MEL-2 melanoma was more than 100 µM in each case. Besides, the TGI in the test on U251 CNS, in the test with UACC-257 melanoma and in the test on UACC-62 melanoma was more than 100 µM throughout.
Consider `O=C(Nc1cccc(Cl)c1)c1cc2cc(N=Nc3ccc(Br)cc3)ccc2oc1=O`, for which the TGI was more than 100 µM with HCT-116 colon; more than 100 µM in the test with HCT-15 colon; more than 100 µM in the test on IGROV1 ovarian; more than 100 µM in the test with OVCAR-3 ovarian; 52.7 µM in the test with SK-MEL-2 melanoma; more than 100 µM with U251 CNS. For the same compound, the figures for the TGI in the test on UACC-257 melanoma and in the test with UACC-62 melanoma were more than 100 µM and 39.1 µM, respectively.
As for `O=C(Cc1nc2ccccc2s1)C(=O)Nc1ccccc1C(F)(F)F`, the TGI with HCT-116 colon, in the test on HCT-15 colon, with HL-60(TB) leukemia, in the test with IGROV1 ovarian, in the test with OVCAR-3 ovarian and with SK-MEL-2 melanoma was more than 100 µM in each case. Moreover, the TGI with U251 CNS, with UACC-257 melanoma and in the test with UACC-62 melanoma was more than 100 µM each time.
In the case of `Cc1cn2cc(-c3ccncc3)nc2s1`, the TGI in the test on HCT-116 colon is more than 100 µM; in the test on HCT-15 colon, more than 100 µM; in the test on HL-60(TB) leukemia it was more than 41.6 µM; in the test on IGROV1 ovarian, more than 100 µM; with OVCAR-3 ovarian it was more than 100 µM; in the test on SK-MEL-2 melanoma, more than 100 µM. For the same compound, the TGI with U251 CNS, in the test with UACC-257 melanoma and in the test with UACC-62 melanoma was more than 100 µM in each case.
`O=C1OC2C(O)COC2(OCc2c[nH]c3ccccc23)C1O` (stereo not given) (tested in a mixture with another compound): the TGI in the test on HCT-116 colon, with HCT-15 colon, in the test with HL-60(TB) leukemia, with IGROV1 ovarian, in the test with OVCAR-3 ovarian and in the test with SK-MEL-2 melanoma was more than 100 µM each time. The TGI with U251 CNS, in the test with UACC-257 melanoma and with UACC-62 melanoma was more than 100 µM each time.
As for `CC(=O)NC1C(=O)CC(c2ccccc2)N(C)C1c1ccccc1` (stereo not given), the TGI in the test with HCT-116 colon, in the test on HCT-15 colon, with HL-60(TB) leukemia, with IGROV1 ovarian, in the test with OVCAR-3 ovarian and in the test with SK-MEL-2 melanoma was more than 100 µM throughout. Moreover, the TGI in the test on U251 CNS, in the test on UACC-257 melanoma and with UACC-62 melanoma was more than 100 µM each time.
As for `CC1CCCC2(O1)OC1CC(=O)OC1C1=C2C(=O)c2ccccc2C1=O` (stereo not given), the TGI came to 8.04 µM in the test with HCT-15 colon; 3.48 µM in the test on HL-60(TB) leukemia; 6.87 µM in the test on IGROV1 ovarian; 10.5 µM with OVCAR-3 ovarian; 6.11 µM with SK-MEL-2 melanoma; 32.5 µM with U251 CNS. Moreover, the TGI in the test on UACC-257 melanoma was found to be 3.95 µM; in the test with UACC-62 melanoma, 5.1 µM.
On to `O=c1c2ccccc2nc(-c2ccccc2Cl)n1NC1OC(CO)C(O)C(O)C1O` (stereo not given), for which the TGI in the test on HCT-116 colon, in the test with HCT-15 colon, in the test with HL-60(TB) leukemia, in the test with IGROV1 ovarian, in the test with OVCAR-3 ovarian and in the test on SK-MEL-2 melanoma was more than 100 µM throughout. Moreover, the TGI in the test with U251 CNS, in the test on UACC-257 melanoma and in the test with UACC-62 melanoma was more than 100 µM each time.
In the case of `COCC(O)CN1C(N)=NC(O)C1O` (stereo not given), the TGI in the test with HL-60(TB) leukemia, with SK-MEL-2 melanoma, in the test with U251 CNS and in the test with UACC-257 melanoma was more than 100 µM throughout.
On to `CCOc1ccccc1Nc1nc(C)c(C(=O)CC(=O)C(=O)Nc2ccccc2)s1`, for which the TGI in the test with HCT-116 colon is more than 100 µM; in the test with HCT-15 colon, more than 100 µM; in the test with HL-60(TB) leukemia, 58.1 µM; in the test on IGROV1 ovarian, more than 100 µM; with OVCAR-3 ovarian it was 63.3 µM; in the test on SK-MEL-2 melanoma it was more than 100 µM. The TGI with U251 CNS, in the test with UACC-257 melanoma and in the test with UACC-62 melanoma was more than 100 µM in each case.
For the compound `COc1cc(C2C(C(=O)Nc3ccc(Cl)c(Cl)c3)=C(C)NC(C)=C2C(=O)Nc2ccc(Cl)c(Cl)c2)ccc1O`, the TGI came to 23.3 µM in the test with HL-60(TB) leukemia; 42 µM with IGROV1 ovarian; 27.7 µM with OVCAR-3 ovarian; 23.5 µM in the test on SK-MEL-2 melanoma; 34.7 µM in the test with U251 CNS; 28.7 µM with UACC-257 melanoma.
With `O=C1[C@@H]2C3C=CC([C@H]4C(=O)N(CO)C(=O)[C@@H]34)[C@@H]2C(=O)N1CO`, the TGI with HCT-116 colon is more than 57.4 µM; with HCT-15 colon it was more than 56.7 µM; in the test on HL-60(TB) leukemia, 49.3 µM; in the test with IGROV1 ovarian, more than 100 µM; in the test on OVCAR-3 ovarian, more than 100 µM; with SK-MEL-2 melanoma it was more than 100 µM. For the same compound, the TGI in the test with U251 CNS, in the test on UACC-257 melanoma and in the test on UACC-62 melanoma was more than 100 µM in each case.
With `S=C(N/N=C/c1ccccc1)NC1CC(c2ccccc2)Oc2ccccc21` (stereo not given), the TGI was more than 100 µM with HCT-116 colon; more than 100 µM in the test with IGROV1 ovarian; 28.7 µM with OVCAR-3 ovarian; more than 100 µM in the test with SK-MEL-2 melanoma; more than 100 µM with U251 CNS; more than 100 µM in the test on UACC-62 melanoma.
With `O=[N+]([O-])c1ccc(-c2ccc(C3=Nn4c(nnc4-c4ccc(Cl)cc4)SC3)o2)cc1`, the TGI in the test on HCT-116 colon, in the test with HCT-15 colon, in the test with HL-60(TB) leukemia, in the test on IGROV1 ovarian, with OVCAR-3 ovarian and in the test on SK-MEL-2 melanoma was more than 100 µM each time. Further, the TGI in the test on U251 CNS is more than 70.7 µM; with UACC-257 melanoma, more than 100 µM; in the test on UACC-62 melanoma, more than 100 µM.

These data come from PubChem BioAssay (NCI).
